# Laboratory results: US4031205A, “Method for treating nervous bladder” (priority 1975, dated 1977)
# Experiments:
# mice of ICR-JCL strain = test: Acute toxicity test in mice; details: for Maximum dose (no case of deaths): single dose, 7 days observation
# Description: (§1) In order to evaluate the acute toxicity of a single high dose administration of Ubiquinone 10(CoQ10), male and female rats of Wistar strain and male and female mice of ICR-JCL strain were used, and oral, intramuscular, subcutaneous, and intravenous administrations were studied. For the oral administration of Ubiquinone 10(CoQ10), gum Arabic suspension was used. For the intramuscular, subcutaneous, and intravenous administrations, Ubiquinone 10(CoQ10) is used as its solution in surfactant, hydrogenated castor oil ethylene oxide addition product (HCO-60).
# (§2) Observation was carried out for 7 days, by using six males and six females for each dose group.
# rats of Wistar strain [1] = details: rat, in vivo, po
# Description: (§4) Ubiquinone 10(CoQ10) was compulsorily and orally administered every day for 5 weeks to each group consisting of 10 male rats and 10 female rats of Wistar strain. The dose was 40, 200, and 1000 mg/Kg/day, respectively. Ubiquinone 10(CoQ10) was used in the form of gum Arabic suspension, while the solution containing gum Arabic alone was used as the control group. Collection of blood and urine samples and autopsies were carried out 5 weeks after the initiation of administration.
# rats of Wistar strain [2] = test: Subacute toxicity test in rats
# Description: as §4
# rats of Wistar strain [3] = test: Chronic oral toxicity test
# Description: Ubiquinone 10(CoQ10) was compulsorily and orally administered to each group consisting of 10 male rats and 10 female rats of Wistar strain for consecutive 26 weeks in a ratio of 6 days a week. The dose was 6, 60 and 600 mg/Kg/day, respectively. ubiquinone 10(CoQ10) was used in the form of gum Arabic suspension, whereas the solution containing gum Arabic alone is used as the control group. Collection of blood and urine samples and autopsies were carried out 26 weeks after the administration.
# [4] = Clinical test: effectiveness of Ubiquinone 10(CoQ10) for nervous bladder; format: in vivo, human; set-up: Pressure curve Volume: unit not given beside the values; Residual urine / Urethral R. (Resistance): unit not given here
# Description: Six patients compalining of dysuria and incontinentia urinac due to nervous bladder were made sujects. Case 1 was nocturnal enuresis of unknown cause, Cases 2-4 were impairement of root of spinal nerve (nuclear type), and Cases 5 and 6 were spinal impairements (supra nuclear type).
# Hard capsules containing 5 mg of Ubiquinone 10(CoQ10) in the present invention were orally administered.
# The dose of 1-3 capsules each time was orally administered 3 times a day after meals for consecutive 3-4 weeks as a rule. Depending on cases, 10 mg of Ubiquinone 10(CoQ10) was concurrently injected. The measurement of bladder functions, that is, the measurement of the pressure curve in the bladder, was carried out in accordance with any conventional method. However, the quantitative bladder crystometrographic curve (BR) was obtained by a modified method for the crystometry. More particularly, the curve was prepared by observing the condition of weak autonomic rhythmical contraction of the bladder wall, when the sensitivity and the recording rate of a crystometer were risen after the infusion of a certain amount of the solution.
# rabbits = test: Subacute oral toxicity test in rabbits
# Description: (§3) Ubiquinone 10(CoQ10) was compulsorily and orally administered every day for 23 days to each group consisting of six male rabbits and five female rabbits. […] On the 24th day, blood samples were collected from all the animals, and three males and two females from each group were then selectively autopsied.
# [5] = in vivo
# Description: as §1, §2
# The dose was 40, 200, and 1000 mg/Kg/day, respectively.
# as §3
# rats of Wistar strain [6] = test: Acute toxicity test in rats; details: for Maximum dose (no case of deaths): single dose, 7 days observation
# Description: as §1, §2
# mice = test: Teratogenesis test in mice; format: in vivo, mouse; details: 6, 60, and 600 mg/Kg/day
# [7] = Physical and chemical properties: solubility; format: physicochemical
# Description: Ubiquinone n, for example, Ubiquinone 10(CoQ10), can be mainly obtained synthetically, though it is possible to extract the Ubiquinone from animal organs. Physical and chemical properties of Ubiquinone 10(CoQ10) produced synthetically are as follows.
# rats = test: Teratogenesis test in rats; format: in vivo, rat; details: 6, 60, and 600 mg/Kg/day
# [8] = 6, 60, 600 mg/Kg/day oral, 26 weeks
# [9] = spontaneous pneumonia and aspiration pneumonia due to erroneous administration, group not stated
# [10] = Case 1, 20 days with 3 capsules
# [11] = Case 1, 20 days with 3 capsules, After (Before: +)
# [12] = Case 2, 30 days with 3 OR 20 days with 4 capsules
# [13] = Case 3, 30 days with 1 OR 3 capsules
# [14] = Case 4, 30 days with 3 capsules
# [15] = Case 5, 50 days with 1 capsule, After (Before: ++)
# [16] = Case 6, 30 days with 3 capsules
# [17] = 6, 60, 600 mg/Kg/day oral, 23 days
structure (smiles),measurement,setting,value
COC1=C(OC)C(=O)C(CC=C(C)CCC=C(C)CCC=C(C)CCC=C(C)CCC=C(C)CCC=C(C)CCC=C(C)CCC=C(C)CCC=C(C)CCC=C(C)C)=C(C)C1=O [Ubiquinone 10(CoQ10)],deaths,"mice of ICR-JCL strain; mice, at the maximum dose in each administration route",no case of deaths
same,Maximum dose (no case of deaths),"mice of ICR-JCL strain; mice, intramuscular",500 mg/kg
same,Maximum dose (no case of deaths),"mice of ICR-JCL strain; mice, intravenous",250 mg/kg
same,Maximum dose (no case of deaths),"mice of ICR-JCL strain; mice, oral",4000 mg/kg
same,Maximum dose (no case of deaths),"mice of ICR-JCL strain; mice, subcutaneous",500 mg/kg
same,LD50,"mice of ICR-JCL strain; mice, maximum doses of Table 1",far higher than the maximum dose mentioned above
same,"general condition, body weight, food intake and autopsy findings","mice of ICR-JCL strain; mouse, in vivo",no change was recognized
same,macroscopical and histological observation,rats of Wistar strain [1],abnormality was not recognized
same,dead animals during the experiment,"rats of Wistar strain [2]; spontaneous pneumonia and aspiration pneumonia due to error of administration, group not stated",4
same,toxicity (overall),"rats of Wistar strain [2]; subacute oral, 5 weeks",there was not recognized the toxicity
same,biochemical tests of blood and urine vs control,rats of Wistar strain [3]; [8],No significant change
same,body weight,rats of Wistar strain [3]; [8],increased as same as that of the control group
same,weight of organ,rats of Wistar strain [3]; [8],no significant increase and decrease
same,general condition vs control,"rats of Wistar strain [3]; 6, 60, 600 mg/Kg/day oral, 6 days a week, 26 weeks",no difference
same,toxicity (overall),"rats of Wistar strain [3]; chronic oral, 26 weeks",no toxicity was observed
same,macroscopical and histological observation vs control,"rats of Wistar strain [3]; hemoxylin.Eosine staining and liver fat staining, 26 weeks",abnormalities were not recognized
same,leukocytal percentages,"rats of Wistar strain [3]; some increase and decrease, not dose dependent, 26 weeks",within extent of physiological fluctuations
same,"animals died, females",rats of Wistar strain [3]; [9],3
same,"animals died, males",rats of Wistar strain [3]; [9],11
same,Residual urine,"[4]; Case 1 (nocturnal enuresis), 20 days with 3 capsules, After (Before: 35)",5
same,Effectiveness: Volume,[4]; [10],increased
same,Evaluation,[4]; [10],Effective
same,Urethral R. (Resistance),"[4]; Case 1, 20 days with 3 capsules, After (Before: 110)",100
same,Pressure curve Volume,"[4]; Case 1, 20 days with 3 capsules, After (Before: 295)",340
same,Basal Pressure BR,[4]; [11],Normal
same,Basal Pressure SR,[4]; [11],Normal
same,Residual urine,"[4]; Case 2 (spina bifida), 30 days with 3 capsules OR 20 days with 4 capsules, After (Before: 0)",0
same,Effectiveness: Volume,[4]; [12],increased
same,Evaluation,[4]; [12],Unchanged
same,Urethral R. (Resistance),"[4]; Case 2, 30 days with 3 OR 20 days with 4 capsules, After (Before: 30)",33
same,Pressure curve Volume,"[4]; Case 2, 30 days with 3 OR 20 days with 4 capsules, After (Before: 90)",110
same,Residual urine,"[4]; Case 3 (spina bifida), 30 days with 1 capsule OR 30 days with 3 capsules, After (Before: 75)",65
same,Effectiveness: Curve,[4]; [13],improved
same,Effectiveness: Residual urine,[4]; [13],decreased
same,Effectiveness: Volume,[4]; [13],increased
same,Evaluation,[4]; [13],Effective
same,Pressure curve Volume,"[4]; Case 3, 30 days with 1 OR 3 capsules, After (Before: 150)",200
same,Residual urine,"[4]; Case 4 (spina bifida), 30 days with 3 capsules, After (Before: 95)",70
same,Effectiveness: Anischuria,[4]; [14],improved
same,Effectiveness: BR,[4]; [14],appeared
same,Effectiveness: Volume,[4]; [14],increased
same,Urethral R. (Resistance),"[4]; Case 4, 30 days with 3 capsules, After (Before: 45)",49
same,Pressure curve Volume,"[4]; Case 4, 30 days with 3 capsules, After (Before: 130)",345
same,Basal Pressure BR,"[4]; Case 4, 30 days with 3 capsules, After (Before: ±)",Normal
same,Residual urine,"[4]; Case 5 (paraplegia), 50 days with 1 capsule, After (Before: 20)",0
same,Effectiveness: BR SR,"[4]; Case 5, 50 days with 1 capsule",normalized
same,Effectiveness: Curve,"[4]; Case 5, 50 days with 1 capsule",improved
same,Urethral R. (Resistance),"[4]; Case 5, 50 days with 1 capsule, After (Before: 76)",73
same,Pressure curve Volume,"[4]; Case 5, 50 days with 1 capsule, After (Before: 240)",260
same,Basal Pressure BR,[4]; [15],Normal
same,Basal Pressure SR,[4]; [15],Normal
same,Pressure curve Volume,"[4]; Case 6 (Myelitis Adhesiva), 30 days with 3 capsules, After (Before: 150)",150
same,Effectiveness: Curve,[4]; [16],improved
same,Effectiveness: SR,[4]; [16],improved
same,Pressure curve Type,"[4]; Case 6, 30 days with 3 capsules, After (Before: Reflex)",Reflex
same,"effective results and markedly effective results, number of cases",[4]; among the 6 cases,5 cases
same,general condition and increase of body weight vs control,rabbits; [17],no difference
same,weight of each organ,rabbits; [17],no effect
same,hematological test and biochemical test of blood,"rabbits; 6, 60, 600 mg/Kg/day oral, 23 days, 24th day",Abnormal findings were not obtained
same,macroscopical and histological observation,"rabbits; hematoxylin.Eosine staining and liver fat staining, 23 days oral",abnormalities were not recognized
same,electron-microscopic observation of liver (minute structure),"rabbits; seventh, 14th and 24th days",there were not recognized abnormal findings
same,toxicity (overall),"rabbits; subacute oral, 23 days",there were not recognized the findings wherein the toxicity of Ubiquinone 10(CoQ10) will be suggested
same,overall safety,[5],"a very safe drug, without side-effects"
same,"general condition, body weight, food intake and autopsy findings","rats of Wistar strain [6]; rat, in vivo",no change was recognized
same,deaths,"rats of Wistar strain [6]; rats, at the maximum dose in each administration route",no case of deaths
same,Maximum dose (no case of deaths),"rats of Wistar strain [6]; rats, intramuscular",500 mg/kg
same,Maximum dose (no case of deaths),"rats of Wistar strain [6]; rats, intravenous",250 mg/kg
same,Maximum dose (no case of deaths),"rats of Wistar strain [6]; rats, oral",4000 mg/kg
same,Maximum dose (no case of deaths),"rats of Wistar strain [6]; rats, subcutaneous",500 mg/kg
same,LD50,"rats of Wistar strain [6]; rats, maximum doses of Table 1",far higher than the maximum dose mentioned above
same,"adverse effects in mothers, fetuses, and newborns",mice,no adverse effects were noted
same,solubility,[7]; acetone,soluble
same,solubility,[7]; benzene,easily soluble
same,solubility,[7]; carbon tetrachloride,easily soluble
same,solubility,[7]; chloroform,easily soluble
same,solubility,[7]; ethanol,insoluble
same,solubility,[7]; ether,soluble
same,solubility,[7]; methanol,hardly soluble
same,solubility,[7]; water,hardly soluble
same,"adverse effects in mothers, fetuses, and newborns",rats,no adverse effects were noted
